In ChEMBL document CHEMBL1201862, “PubChem BioAssay data set” (2004):
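The compound was tested at five concentrations on cells cultured in 96-well plates, with a 48-hour exposure period. At the GI50, growth is halved.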 Calls of active or inactive are those of the source. No stated cut-off is given here; in the data, active = GI50 up to about 1.1 µM and inactive = higher.

How the values were obtained:
Experiment in all cases: NCI-60 cell line screen, 48 h
K562 = tested on: K562
UO-31 = tested on: UO-31
DLD-1 = tested on: DLD-1
NCI-H460 = tested on: NCI-H460
KM-20L2 = tested on: KM-20L2
LXFL 529 = tested on: LXFL 529
CCRF-CEM = tested on: CCRF-CEM
SW-620 = tested on: SW-620
COLO 205 = tested on: COLO 205
SF-268 = tested on: SF-268
HCT-116 = tested on: HCT-116
U-251 = tested on: U-251
SF-539 = tested on: SF-539
DMS-273 = tested on: DMS-273
HOP-18 = tested on: HOP-18
SK-OV-3 = tested on: SK-OV-3
OVCAR-5 = tested on: OVCAR-5
HCT-15 = tested on: HCT-15
RPMI-8226 = tested on: RPMI-8226
HOP-92 = tested on: HOP-92
HOP-62 = tested on: HOP-62
RXF 393 = tested on: RXF 393
KM12 = tested on: KM12
M14 = tested on: M14
DMS-114 = tested on: DMS-114
NCI-H23 = tested on: NCI-H23
IGROV-1 = tested on: IGROV-1
XF498 = tested on: XF498
Malme-3M = tested on: Malme-3M
NCI-H226 = tested on: NCI-H226
SNB-19 = tested on: SNB-19
UACC-62 = tested on: UACC-62
NCI-H522 = tested on: NCI-H522
CAKI-1 = tested on: CAKI-1
LOX IMVI = tested on: LOX IMVI
HT-29 = tested on: HT-29
SK-MEL-2 = tested on: SK-MEL-2
EKVX = tested on: EKVX
OVCAR-4 = tested on: OVCAR-4
SN12C = tested on: SN12C
SK-MEL-28 = tested on: SK-MEL-28
OVCAR-3 = tested on: OVCAR-3
A498 = tested on: A498
TK-10 = tested on: TK-10
A549 = tested on: A549
M19-MEL = tested on: M19-MEL
SNB-75 = tested on: SNB-75
RXF 631 = tested on: RXF 631
UACC-257 = tested on: UACC-257
786-0 = tested on: 786-0
OVCAR-8 = tested on: OVCAR-8
HCC 2998 = tested on: HCC 2998
ACHN = tested on: ACHN
MOLT-4 = tested on: MOLT-4
SK-MEL-5 = tested on: SK-MEL-5

CC(=O)c1cccc(NC(=O)C(=O)C(C(=O)NN)c2ccccc2)c1 (stereo not given) was tested. Which GI50 (K562) did it give?
Its GI50 is > 100 µM (inactive).

And the GI50 (UO-31)?
The GI50 was > 100 µM (inactive).

And the GI50 (DLD-1)?
The GI50 was > 100 µM (inactive).

What about the GI50 (NCI-H460) of the same compound?
Its GI50 is > 100 µM (inactive).

And the GI50 (KM-20L2)?
Its GI50 is > 100 µM (inactive).

What about the GI50 (LXFL 529) of the same compound?
Its GI50 is > 100 µM (inactive).

What about the GI50 (CCRF-CEM) of the same compound?
Its GI50 is > 100 µM (inactive).

And the GI50 (SW-620)?
The GI50 was > 100 µM (inactive).

What about the GI50 (COLO 205) of the same compound?
Its GI50 is > 100 µM (inactive).

What about the GI50 (SF-268) of the same compound?
The GI50 was > 100 µM (inactive).

What about the GI50 (HCT-116) of the same compound?
Its GI50 is > 100 µM (inactive).

What about the GI50 (U-251) of the same compound?
Its GI50 is > 100 µM (inactive).

And the GI50 (SF-539)?
Its GI50 is > 100 µM (inactive).

And the GI50 (DMS-273)?
Its GI50 is > 100 µM (inactive).

What about the GI50 (HOP-18) of the same compound?
Its GI50 is 16.5 µM (inactive).

And the GI50 (SK-OV-3)?
Its GI50 is > 100 µM (inactive).

And the GI50 (OVCAR-5)?
The GI50 was > 100 µM (inactive).

And the GI50 (HCT-15)?
The GI50 was greater than 100 µM.

What about the GI50 (RPMI-8226) of the same compound?
The GI50 was > 100 µM (inactive).

And the GI50 (HOP-92)?
Its GI50 is > 100 µM (inactive).

And the GI50 (HOP-62)?
The GI50 was > 100 µM (inactive).

What about the GI50 (RXF 393) of the same compound?
The GI50 was > 100 µM (inactive).

And the GI50 (KM12)?
The GI50 was > 100 µM (inactive).

And the GI50 (M14)?
The GI50 was > 100 µM (inactive).

What about the GI50 (DMS-114) of the same compound?
Its GI50 is > 100 µM (inactive).

What about the GI50 (NCI-H23) of the same compound?
Its GI50 is > 100 µM (inactive).

What about the GI50 (IGROV-1) of the same compound?
The GI50 was > 100 µM (inactive).

And the GI50 (XF498)?
Its GI50 is > 100 µM (inactive).

And the GI50 (Malme-3M)?
The GI50 was > 100 µM (inactive).

And the GI50 (NCI-H226)?
Its GI50 is > 100 µM (inactive).

What about the GI50 (SNB-19) of the same compound?
Its GI50 is > 100 µM (inactive).

What about the GI50 (UACC-62) of the same compound?
Its GI50 is > 100 µM (inactive).

What about the GI50 (NCI-H522) of the same compound?
The GI50 was > 100 µM (inactive).

What about the GI50 (CAKI-1) of the same compound?
The GI50 was > 100 µM (inactive).

And the GI50 (LOX IMVI)?
The GI50 was > 100 µM (inactive).

And the GI50 (HT-29)?
Its GI50 is > 100 µM (inactive).

What about the GI50 (SK-MEL-2) of the same compound?
The GI50 was > 100 µM (inactive).

What about the GI50 (EKVX) of the same compound?
Its GI50 is > 100 µM (inactive).

What about the GI50 (OVCAR-4) of the same compound?
Its GI50 is > 100 µM (inactive).

What about the GI50 (SN12C) of the same compound?
The GI50 was > 100 µM (inactive).

And the GI50 (SK-MEL-28)?
Its GI50 is > 100 µM (inactive).

What about the GI50 (OVCAR-3) of the same compound?
Its GI50 is > 100 µM (inactive).

And the GI50 (A498)?
Its GI50 is > 100 µM (inactive).

What about the GI50 (TK-10) of the same compound?
Its GI50 is > 100 µM (inactive).

What about the GI50 (A549) of the same compound?
Its GI50 is > 100 µM (inactive).

What about the GI50 (M19-MEL) of the same compound?
Its GI50 is > 100 µM (inactive).

And the GI50 (SNB-75)?
The GI50 was > 100 µM (inactive).

What about the GI50 (RXF 631) of the same compound?
The GI50 was > 100 µM (inactive).

And the GI50 (UACC-257)?
The GI50 was > 100 µM (inactive).

What about the GI50 (786-0) of the same compound?
Its GI50 is > 100 µM (inactive).

What about the GI50 (OVCAR-8) of the same compound?
The GI50 was > 100 µM (inactive).

What about the GI50 (HCC 2998) of the same compound?
Its GI50 is 51.6 µM (inactive).

And the GI50 (ACHN)?
Its GI50 is > 100 µM (inactive).

What about the GI50 (MOLT-4) of the same compound?
Its GI50 is > 100 µM (inactive).

What about the GI50 (SK-MEL-5) of the same compound?
Its GI50 is > 100 µM (inactive).
